Measurements from US9480729B2, “Enzymes for inhibiting growth of biofilms and degrading same” (C5-6 Technologies, Inc., priority 2012, dated 2016).

B1: P043 CelH: Clostridium thermocellum CelH enzyme (gene Cthe_1472) represented by SEQ ID NO:12 (protein, listed as Clostridium thermocellum)
chain: IKSFQELQGRKLDIVHQFINWSTDFSWVRPYADAVYNNGSILMITWEPWEYNTVDIKNGKADAYITRMAQDMKAYGKEIWLRPLHEANGDWYPWAIGYSSRVNTNETYIAAFRHIVDIFRANGATNVKWVFNVNCDNVGNGTSYLGHYPGDNYVDYTSIDGYNWGTTQSWGSQWQSFDQVFSRAYQALASINKPIIIAEFASAEIGGNKARWITEAYNSIRTSYNKVIAAVWFHENKETDWRINSSPEALAAYREAIGAGSSNPTPTPTWTSTPPSSSPKAVDPFEMVRKMGMGTNLGNTLEAPYEGSWSKSAMEYYFDDFKAAGYKNVRIPVRWDNHTMRTYPYTIDKAFLDRVEQVVDWSLSRGFVTIINSHHDDWIKEDYNGNIERFEKIWEQIAERFKNKSENLLFEIMNEPFGNITDEQIDDMNSRILKIIRKTNPTRIVIIGGGYWNSYNTLVNIKIPDDPYLIGTFHYYDPYEFTHKWRGTWGTQEDMDTVVRVFDFVKSWSDRNNIPVYFGEFAVMAYADRTSRVKWYDFISDAALERGFACSVWDNGVFGSLDNDMAIYNRDTRTFDTEILNALFNPGTYPSYSPKPSPTPRPTKPPVTPAVGEKMLDDFEGVLNWGSYSGEGAKVSTKIVSGKTGNGMEVSYTGTTDGYWGTVYSLPDGDWSKWLKISFDIKSVDGSANEIRFMIAEKSINGVGDGEHWVYSITPDSSWKTIEIPFSSFRRRLDYQPPGQDMSGTLDLDNIDSIHFMYANNKSGKFVVDNIKLIGATSDPTPSIKHGDLNFDNAVNSTDLLMLKRYILKSLELGTSEQEEKFKKAADLNRDNKVDSTDLTILKRYLLKAISEIPI

Columns and labels:
[1] = cited from earlier work
[2] = test system: Pseudomonas aeruginosa biofilm; assay: Sugar release / solubilization of dehydrated P. aeruginosa biofilm by carbohydrate-active enzymes; conditions: individual enzymes, dehydrated biofilm in PBS, 37° C., 19 hr / overnight

Molecule | maximal attainable concentration in the CF lung [1] [µg/mL] | digestion (solubilization, hydrolysis) of the Pseudomonas aeruginosa biofilm, sugar release [2]
NC[C@H]1O[C@H](O[C@H]2[C@H](O)[C@@H](O[C@H]3O[C@H](CO)[C@@H](O)[C@H](N)[C@H]3O)[C@H](N)C[C@@H]2N)[C@H](N)C[C@@H]1O [tobramycin] | ~1000 | 
egg yolk lysozyme: egg yolk lysozyme (Sigma L4919) |  | None of these three enzymes showed significant hydrolysis
B1 |  | positive results
